Values quoted from earlier work as cited in article PMC5263201, “GABAA receptor occupancy by subtype selective GABAAα2,3 modulators: PET studies in humans” (Psychopharmacology, 2016).
Read-outs that look alike come from different tables or passages of the source.

Experiments:
[1] = target: BZ binding site, hippocampus synaptosomal membranes; design: method as in Dubinsky et al 2002; conditions: (e) rat brain synaptosomal membranes; [3H]Ro15-4513; ref Dubinsky et al 2002; read-out: Affinity in vitro at BZ binding site (Ki), hippocampus; cited from earlier work
[2] = system: GABAA receptor; conditions: cited from earlier work; for Receptor occupancy: ref Atack et al 2010a
[3] = target: GABAA receptor α2; design: method as in Sieghart 1995; conditions: (d) review; ref Sieghart 1995; read-out: Affinity in vitro at BZ binding site (Ki) α2; cited from earlier work
[4] = target: GABAA receptor α3; design: method as in Sieghart 1995; conditions: (d) review; ref Sieghart 1995; read-out: Affinity in vitro at BZ binding site (Ki) α3; cited from earlier work
[5] = target: GABAA receptor α5; design: method as in Sieghart 1995; conditions: (d) review; ref Sieghart 1995; read-out: Affinity in vitro at BZ binding site (Ki) α5; cited from earlier work
[6] = target: GABAA α1, α2, α3, and α5 subunits; design: method as in Sieghart 1995; conditions: ref Sieghart 1995; read-out: K i for the GABAA α1, α2, α3, and α5 subunits; cited from earlier work
[7] = target: GABAA α4 and α6 subunits; design: method as in Sieghart 1995; conditions: ref Sieghart 1995; read-out: K i for the α4 and α6 subunits; cited from earlier work
[8] = system: human recombinant GABAA receptors containing β3γ2 plus α3; design: method as in Atack et al 2010; conditions: maximum potentiation of GABA EC20 currents relative to chlordiazepoxide; ref Atack et al 2010; cited from earlier work
[9] = target: human recombinant GABAA receptors containing β3, γ2 plus α2; design: method as in Atack et al 2010a; conditions: L(tk-) cells, human recombinant β3γ2 plus α2; mean (SEM); ref Atack et al 2010a; read-out: Affinity in vitro at BZ binding site (Ki) α2; cited from earlier work
[10] = system: GABAA α5β3γ2; design: method as in Christian et al 2015; conditions: 1µM test concentration, GABA EC10, % of 1 µM diazepam, mean ±SE, ref Christian et al 2015; cited from earlier work
[11] = target: human recombinant GABAA receptors containing β3, γ2 plus α5; design: method as in Atack et al 2010a; conditions: L(tk-) cells, human recombinant β3γ2 plus α5; mean (SEM); ref Atack et al 2010a; read-out: Affinity in vitro at BZ binding site (Ki) α5; cited from earlier work
[12] = system: GABAA α2β3γ2; design: method as in Christian et al 2015; conditions: 1µM test concentration, GABA EC10, % of 1 µM diazepam, mean ±SE, ref Christian et al 2015; cited from earlier work
[13] = target: human recombinant GABAA receptors containing β3, γ2 plus α1; design: method as in Atack et al 2010a; conditions: L(tk-) cells, human recombinant β3γ2 plus α1; mean (SEM); ref Atack et al 2010a; read-out: Affinity in vitro at BZ binding site (Ki) α1; cited from earlier work
[14] = system: GABAA α3β3γ2; design: method as in Christian et al 2015; conditions: 1µM test concentration, GABA EC10, % of 1 µM diazepam, mean ±SE, ref Christian et al 2015; cited from earlier work
[15] = system: GABAA α1β2γ2; design: method as in Christian et al 2015; conditions: 1µM test concentration, GABA EC10, % of 1 µM diazepam, mean ±SE, ref Christian et al 2015; cited from earlier work
[16] = system: human recombinant GABAA receptors containing β3γ2 plus α5; design: method as in Atack et al 2010; conditions: maximum potentiation of GABA EC20 currents relative to chlordiazepoxide; ref Atack et al 2010; cited from earlier work
[17] = target: human recombinant GABAA receptors containing β3, γ2 plus α3; design: method as in Atack et al 2010a; conditions: L(tk-) cells, human recombinant β3γ2 plus α3; mean (SEM); ref Atack et al 2010a; read-out: Affinity in vitro at BZ binding site (Ki) α3; cited from earlier work
[18] = ref Atack et al 2010a; cited from earlier work
[19] = system: human recombinant GABAA receptors containing β3γ2 plus α2; design: method as in Atack et al 2010; conditions: maximum potentiation of GABA EC20 currents relative to chlordiazepoxide; ref Atack et al 2010; cited from earlier work
[20] = system: human recombinant GABAA receptors containing β3γ2 plus α1; design: method as in Atack et al 2010; conditions: ref Atack et al 2010, cited from earlier work; for Relative efficacy (%CDP) α1: maximum potentiation of GABA EC20 currents relative to chlordiazepoxide
[21] = target: GABAA receptor α1; design: method as in Sieghart 1995; conditions: (d) review; ref Sieghart 1995; read-out: Affinity in vitro at BZ binding site (Ki) α1; cited from earlier work
[22] = system: human α5β2γ2 GABAA receptors; design: method as in Sanna et al 2002; conditions: GABA-evoked Cl- currents, means ±SE, ref Sanna et al 2002; cited from earlier work
[23] = system: human α2β2γ2 GABAA receptors; design: method as in Sanna et al 2002; conditions: GABA-evoked Cl- currents, means ±SE, ref Sanna et al 2002; cited from earlier work
[24] = system: GABAA receptor; design: method as in Bottlaender et al 1994; conditions: In NHP; corresponds to 4-500 µg/kg; ref Bottlaender et al 1994; cited from earlier work
[25] = system: human α1β2γ2 GABAA receptors; design: method as in Sanna et al 2002; conditions: GABA-evoked Cl- currents, means ±SE, ref Sanna et al 2002; cited from earlier work
[26] = system: human α3β2γ2 GABAA receptors; design: method as in Sanna et al 2002; conditions: GABA-evoked Cl- currents, means ±SE, ref Sanna et al 2002; cited from earlier work
[27] = target: human recombinant GABAA receptors containing β3, γ2 plus α2; design: method as in Atack et al 1999; conditions: (c) human recombinant β3γ2 plus α2; [3H]Ro 15-1788; ref Atack et al 1999; read-out: Affinity in vitro at BZ binding site (Ki) α2; cited from earlier work
[28] = target: human recombinant GABAA receptors containing β3, γ2 plus α3; design: method as in Atack et al 1999; conditions: (c) human recombinant β3γ2 plus α3; [3H]Ro 15-1788; ref Atack et al 1999; read-out: Affinity in vitro at BZ binding site (Ki) α3; cited from earlier work
[29] = target: human recombinant GABAA receptors containing β3, γ2 plus α5; design: method as in Atack et al 1999; conditions: (c) human recombinant β3γ2 plus α5; [3H]Ro 15-1788; ref Atack et al 1999; read-out: Affinity in vitro at BZ binding site (Ki) α5; cited from earlier work
[30] = target: human recombinant GABAA receptors containing β3, γ2 plus α1; design: method as in Atack et al 1999; conditions: (c) human recombinant β3γ2 plus α1; [3H]Ro 15-1788; ref Atack et al 1999; read-out: Affinity in vitro at BZ binding site (Ki) α1; cited from earlier work

| Molecule | Ki [1] | Ki [3] | Ki [4] | Relative efficacy (%CDP) α3 [8] | Ki [9] | Ki [11] | Ki [13] | Relative efficacy (%CDP) α5 [16] | Ki [17] | maximum tolerated dose (MTD) [18] | Relative efficacy (%CDP) α2 [19] | Relative efficacy (%CDP) α1 [20] | also measured |
| --- | --- | --- | --- | --- | --- | --- | --- | --- | --- | --- | --- | --- | --- |
| Cc1nnc2n1-c1ccc(Cl)cc1C(c1ccccc1)=NC2 [Alprazolam] | 5 nM |  |  |  |  |  |  |  |  |  |  |  | Receptor occupancy (RO) ([2]; 2mg/day, sedation, ref Fujita et al 1999): RO:16% (2mg/day, sedation) /Fujita et al 1999 Affinity: Dubinsky et al 2002 |
| CN1C(=O)CN=C(c2ccccc2)c2cc(Cl)ccc21 [Diazepam] | 12.6 nM | 16.9 nM | 17 nM |  |  |  |  |  |  |  |  |  | Receptor occupancy (RO) ([2]; at 30mg, sedation, ref Pauli et al 1992): RO:24%, at 30mg, sedation/ Pauli et al 1992 Affinity: c) Atack et al 1999, d) Sieghart 1995;; Ki [5]: 14.9 nM |
| CCOC(=O)c1ncn2c1CN(C)C(=O)c1cc(F)ccc1-2 [Flumazenil] |  |  |  |  |  |  |  |  |  |  |  |  | Ki [6]: ~1 nM; Ki [7]: ~150 nM |
| O=C1Nc2ccc(Cl)cc2C(c2ccccc2Cl)=NC1O (centres unmarked) [Lorazepam] | 8.6 nM |  |  |  |  |  |  |  |  |  |  |  | Receptor occupancy (RO) ([2]; 2 mg, ref Lindfors-Hughes et al 2005, Atack et al 2010b): RO: ≤10% (2 mg) / Lindfors-Hughes et al 2005, Atack et al 2010b Affinity: Dubinsky et al 2002 |
| CCn1ncnc1COc1nn2c(-c3ccccc3F)nnc2cc1C(C)(C)C [TPA-023, 7-(1,1-dimethylethyl)-6-(2-ethyl-2H-1,2,4-triazol-3-ylmethoxy)-3-(2-fluorophenyl)-1,2,4-triazolo[4,3-b]pyridazine] |  |  |  | 21% | 0.31 nM | 0.41 nM | 0.27 nM | 5% | 0.19 nM | 2 mg | 11% | 0% | Relative efficacy (%DZ) α5 [10]: 6±4%; Receptor occupancy ([2]; at 2mg, MTD): 35-65%; receptor occupancy with lack of overt sedation ([2]; ref Atack et al. 2010, 2011a,b): up to 50%; Relative efficacy (%DZ) α2 [12]: 15±2%; Relative efficacy (%DZ) α3 [14]: 17±1%; Relative efficacy (%DZ) α1 [15]: 5±3%; comment on intrinsic activity at α1 [20]: Christian et al 2015 Atack et al 2010 /antagonist at α1 |
| CC(C)(O)c1cnn2c(-c3ccc(F)c(-c4c(F)cccc4C#N)c3)cnc2n1 [TPA-023B] |  |  |  | 50±2% | 2 ± 0.4 nM | 1.1 ± 0.2 nM | 0.73 ± 0.21 nM | 37±4% | 1.8 ± 0.4 nM | 2 mg | 38±4% | 3±1% | Receptor occupancy ([2]; at 1.5 mg): 53% |
| Cc1nnc2n1-c1ccc(Cl)cc1C(c1ccccc1Cl)=NC2 [Triazolam] |  | 1.2 ± 0.2 nM | 3 ± 0.7 nM |  |  |  |  |  |  |  |  |  | Ki [21]: 1.8 ± 0.4 nM; Relative efficacy (%) α5, maximal percentage potentiation [22]: 165±8%; Relative efficacy (%) α2, maximal percentage potentiation [23]: 255±11%; Receptor occupancy (RO) [24]: In NHP: 5-100% RO corresponds to 4-500 µg/kg/ Bottlaender et al 1994 Affinity: Sieghart 1995; Ki [5]: 1.2 ± 0.3 nM; Relative efficacy (%) α1, maximal percentage potentiation [25]: 132±6%; Relative efficacy (%) α3, maximal percentage potentiation [26]: 270±13% |
| Cc1ccc(-c2nc3ccc(C)cn3c2CC(=O)N(C)C)cc1 [Zolpidem] |  | 291 nM | 357 nM |  |  |  |  |  |  |  |  |  | Ki [21]: 17 nM; Ki [27]: 160 nM; Relative efficacy (%) α5, maximal percentage potentiation [22]: 15±5%; Relative efficacy (%) α2, maximal percentage potentiation [23]: 198±20%; Receptor occupancy (RO) ([2]; 20mg, drowsiness, ref Abadie et al 1996): 21%; Receptor occupancy (RO) ([2]; at 10mg therapeutic dose, ref Abadie et al 1996): 15%; Ki [28]: 380 nM; Relative efficacy (%) α1, maximal percentage potentiation [25]: 100±5%; Relative efficacy (%) α3, maximal percentage potentiation [26]: 217±34%; Ki [29]: > 10000 nM; Ki [30]: 27 nM |
| MRK-409 |  |  |  | 45% | 0.4 ± 0.07 nM | 0.23 ± 0.04 nM | 0.22 ± 0.02 nM | 18% | 0.21 ± 0.03 nM | 1 mg | 23% | 18% | Receptor occupancy ([2]; at 1mg, MTD): < 10%; receptor occupancy at severe sedation ([2]; ref Atack et al. 2010, 2011a,b): < 10%; comment on intrinsic activity at α1 [20]: Atack et al 2010/weak partial agonist at α1 |
